The values below come from ChEMBL document CHEMBL1201862, “PubChem BioAssay data set” (2004).

Common to all, as to experiment: DTP human tumour cell line panel, 48 h
The test system of experiment [1] is CAKI-1.
Experiment [2] has as its system COLO 205.
Experiment [3] concerns HL-60.
The test system of experiment [4] is HOP-62.
Experiment [5] concerns KM12.
Experiment [6] deals with M14.
Experiment [7] concerns MCF7.
For experiment [8], the system named is Malme-3M.
Experiment [9] relates to NCI-H226.
Experiment [10] concerns NCI-H522.
Experiment [11] relates to OVCAR-8.
Experiment [12] concerns RPMI-8226.
Experiment [13] concerns SF-295.
Experiment [14] has as its system SF-539.
In experiment [15] the test system is SK-MEL-5.
Experiment [16] concerns SN12C.
Experiment [17] concerns SR.
The subject of experiment [18] is SW-620.
Experiment [19] concerns TK-10.
Experiment [20] relates to U-251.

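Test compounds were applied to cells in 96-well plates for 48 hours at 5 doses. GI50: concentration for 50% inhibition of growth.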 The source made the active and inactive calls. Cut-off read from the data, not from the text of the source: active = GI50 up to about 1.1 µM and inactive = higher.

As to `CC1(C)Oc2ccc(NC(=O)CCC(N)C(=O)O)cc2O1` (stereo not given), the GI50 in [1], in [2], in experiment [3], in experiment [4], in experiment [5] and in experiment [6] was > 100 µM (inactive) in each case. The GI50 in experiment [7], in experiment [8], in experiment [9], in experiment [10], in experiment [11] and in experiment [12] was > 100 µM (inactive) in each case. Besides, the GI50 in experiment [13], in experiment [14], in [15], in experiment [16], in experiment [17] and in [18] was > 100 µM (inactive) throughout. Further, the GI50 in experiment [19] and in experiment [20] was > 100 µM (inactive) in each case.

As to `COC(=O)C(Cc1ccccc1)C(=O)NC(CNC(=O)OCc1ccccc1)C(=O)OCc1ccccc1` (stereo not given), the GI50 in experiment [1] was 36.8 µM (inactive); in experiment [2], 19.8 µM (inactive); in experiment [3], 30.9 µM (inactive); in experiment [4], > 100 µM (inactive); in experiment [5] it was 58.9 µM (inactive); in experiment [6], 15.3 µM (inactive). The GI50 in experiment [7] was > 100 µM (inactive); in [8], 19.8 µM (inactive); in [9], 32.1 µM (inactive); in experiment [10], 26.7 µM (inactive); in [11], 63.1 µM (inactive); in experiment [12], 21.4 µM (inactive). In addition, the GI50 in [13] is 47.1 µM (inactive); in experiment [14], 40.6 µM (inactive); in experiment [15], 18.8 µM (inactive); in experiment [16] it was 49.8 µM (inactive); in [17] it was 24 µM (inactive); in [18], 38.1 µM (inactive). The GI50 in experiment [19] is 33.7 µM (inactive); in experiment [20] it was 49.1 µM (inactive).

With `CC(C)(C)OC(=O)CCCCCNC(=O)CCCCCNC(=O)CCC(CN(CC(=O)OCc1ccccc1)CC(=O)OCc1ccccc1)N(CC(=O)OCc1ccccc1)CC(=O)OCc1ccccc1` (stereo not given), the GI50 in experiment [1] is 43.8 µM (inactive); in [2] it was > 100 µM (inactive); in [3], 61.1 µM (inactive); in experiment [4] it was > 100 µM (inactive); in experiment [5], > 100 µM (inactive); in experiment [6], > 100 µM (inactive). Further, the GI50 was > 100 µM (inactive) in experiment [7]; > 100 µM (inactive) in experiment [8]; > 100 µM (inactive) in [9]; > 100 µM (inactive) in experiment [10]; > 100 µM (inactive) in [11]; 11.8 µM (inactive) in experiment [12]. For the same compound, the GI50 in [13] is > 100 µM (inactive); in experiment [14], > 100 µM (inactive); in experiment [15], > 100 µM (inactive); in [16], > 100 µM (inactive); in experiment [17], 20.5 µM (inactive); in experiment [18], > 100 µM (inactive). The GI50 in experiment [19] and in experiment [20] was > 100 µM (inactive) in each case.

For the compound `Cc1cc(N(CCC#N)CCC#N)ccc1C(=N/NC(=O)c1cc(Cl)ccc1O)/N=N/c1cccc([N+](=O)[O-])c1`, the GI50 in experiment [1] was 27 µM (inactive); in experiment [2], 16.7 µM (inactive); in experiment [3] it was 14.7 µM (inactive); in [4] it was 24.2 µM (inactive); in experiment [5] it was 23.1 µM (inactive); in [6], 30.4 µM (inactive). The GI50 in experiment [7] is 16.7 µM (inactive); in experiment [8], 34 µM (inactive); in experiment [9] it was 25.1 µM (inactive); in experiment [10] it was 17.3 µM (inactive); in experiment [11], 22.6 µM (inactive); in experiment [12] it was 12.4 µM (inactive). Further, the GI50 in experiment [13] was 35.9 µM (inactive); in experiment [14] it was 44.5 µM (inactive); in experiment [15] it was 18.1 µM (inactive); in experiment [16], 28.3 µM (inactive); in experiment [17], 12.6 µM (inactive); in experiment [18], 39.3 µM (inactive). The GI50 is 27.2 µM (inactive) in experiment [19] and 35.9 µM (inactive) in [20].

As to `C=C1C(=O)OC2CC(C)C3CC(O)OC(OCC)C3(C)CC12` (stereo not given), the GI50 was 17.8 µM (inactive) in experiment [1]; 15.8 µM (inactive) in experiment [2]; 1.14 µM (inactive) in [3]; 20.9 µM (inactive) in experiment [4]; 20.6 µM (inactive) in [5]; 14.8 µM (inactive) in experiment [6]. The GI50 in [7] is 13.3 µM (inactive); in experiment [8], 10.9 µM (inactive); in experiment [9], 25.3 µM (inactive); in [10], 7.03 µM (inactive); in [11] it was 15.7 µM (inactive); in [12] it was 11.4 µM (inactive). For the same compound, the GI50 in experiment [13] is 26.6 µM (inactive); in experiment [14], 18.1 µM (inactive); in experiment [15], 15.5 µM (inactive); in experiment [16], 15.8 µM (inactive); in experiment [17], 13.6 µM (inactive); in experiment [18], 6.85 µM (inactive). Besides, the GI50 in [19] was 22 µM (inactive); in experiment [20], 17.1 µM (inactive).

In the case of `CN(C)c1ccc(/C=C(\NC(=O)c2ccccc2)C2=NC(CCC(=O)O)C(=O)O2)cc1` (stereo not given), the GI50 is > 50 µM (inactive) in experiment [1]; > 50 µM (inactive) in [2]; 49.9 µM (inactive) in experiment [3]; 15.9 µM (inactive) in [4]; 42.8 µM (inactive) in experiment [5]; > 50 µM (inactive) in experiment [6]. Besides, the GI50 in experiment [7] was > 50 µM (inactive); in [8], > 31.3 µM (inactive); in experiment [9] it was > 50 µM (inactive); in experiment [10] it was 17.1 µM (inactive); in [11], > 41.4 µM (inactive); in [12], 35.9 µM (inactive). In addition, the GI50 is > 50 µM (inactive) in experiment [13]; > 35.2 µM (inactive) in experiment [14]; > 48.3 µM (inactive) in experiment [15]; > 50 µM (inactive) in [16]; 49.2 µM (inactive) in experiment [17]; > 50 µM (inactive) in experiment [18]. Also, the GI50 is > 50 µM (inactive) in experiment [19] and > 47.2 µM (inactive) in experiment [20].

Turning to `Cc1cc(C)nc(NS(=O)(=O)c2ccc(NC(=O)c3ccc4nc5ccccc5c(Nc5ccc(S(=O)(=O)Nc6nc(C)cc(C)n6)cc5)c4c3)cc2)n1`, the GI50 in experiment [1] is > 100 µM (inactive); in experiment [2] it was > 100 µM (inactive); in experiment [3], 33 µM (inactive); in experiment [4], > 100 µM (inactive); in [5], 30.3 µM (inactive); in experiment [6], > 100 µM (inactive). In addition, the GI50 is 37.8 µM (inactive) in [7]; 67.5 µM (inactive) in experiment [8]; > 100 µM (inactive) in experiment [9]; 25.5 µM (inactive) in experiment [10]; > 100 µM (inactive) in [11]; 37.2 µM (inactive) in experiment [12]. Moreover, the GI50 was > 100 µM (inactive) in experiment [13]; 88.3 µM (inactive) in [14]; > 100 µM (inactive) in experiment [15]; 46.5 µM (inactive) in [16]; 39.7 µM (inactive) in experiment [17]; 41.4 µM (inactive) in [18]. In addition, the figures for the GI50 in [19] and in [20] were > 100 µM (inactive) and 35.3 µM (inactive), respectively.

Consider `Clc1ccc(Cl)c(/N=N/c2cc3c4c(c2)CCCN4CCC3)c1`, for which the GI50 in experiment [1] was > 10 µM (inactive); in experiment [2], > 10 µM (inactive); in experiment [3], 5 µM (inactive); in [4], > 10 µM (inactive); in experiment [5] it was > 10 µM (inactive); in experiment [6] it was > 10 µM (inactive). For the same compound, the GI50 in [7], in experiment [8], in experiment [9], in [10], in experiment [11] and in experiment [12] was > 10 µM (inactive) throughout. In addition, the GI50 in [13], in experiment [14], in experiment [15], in experiment [16], in [17] and in experiment [18] was > 10 µM (inactive) each time. The GI50 in [19] and in [20] was > 10 µM (inactive) throughout.

As for `CCOc1cc(C2CC(c3ccc(NS(=O)(=O)c4cc([N+](=O)[O-])ccc4C)cc3)=NN2C(=O)c2ccccc2)ccc1O` (stereo not given), the GI50 was 24.7 µM (inactive) in [1]; 16.4 µM (inactive) in experiment [2]; 17.2 µM (inactive) in [3]; 17.1 µM (inactive) in experiment [4]; 30.3 µM (inactive) in experiment [5]; 18.7 µM (inactive) in experiment [6]. Besides, the GI50 was 17.3 µM (inactive) in experiment [7]; 13.8 µM (inactive) in [8]; 19.2 µM (inactive) in [9]; 14.8 µM (inactive) in [10]; 15.2 µM (inactive) in experiment [11]; 31.5 µM (inactive) in experiment [12]. The GI50 in experiment [13] was 20.8 µM (inactive); in experiment [14], 20.9 µM (inactive); in experiment [15], 15.8 µM (inactive); in [16], 22.3 µM (inactive); in [17] it was 23.8 µM (inactive); in experiment [18], 32.8 µM (inactive). Besides, the GI50 was 14.2 µM (inactive) in experiment [19] and 18.7 µM (inactive) in [20].

Consider `COc1ccc(/C=C\c2cc(OC)c(OC)c(OC)c2)cc1OC(=O)CCC(=O)O`, for which the GI50 in [1] is 0.33 µM (active); in experiment [2], 0.857 µM (active); in [3] it was < 0.0001 µM (active); in experiment [4], < 0.0001 µM (active); in [5] it was 0.00043 µM (active); in [6], < 0.0001 µM (active). For the same compound, the GI50 is < 0.01 µM (active) in [7]; < 0.0001 µM (active) in experiment [8]; < 0.0001 µM (active) in experiment [9]; < 0.0001 µM (active) in experiment [10]; < 0.01 µM (active) in experiment [11]; < 0.0001 µM (active) in experiment [12]. Moreover, the GI50 was 0.000158 µM (active) in experiment [13]; < 0.01 µM (active) in experiment [14]; 0.1 µM (active) in experiment [15]; < 0.0001 µM (active) in experiment [16]; < 0.0001 µM (active) in experiment [17]; < 0.0001 µM (active) in [18]. Further, the GI50 is 46.6 µM (inactive) in [19] and < 0.0001 µM (active) in experiment [20].

The GI50 is the concentration that inhibits growth by half.
